{
  "source": "patent US20230339983A1",
  "about": "“FLUORESCENT COMPOUNDS SPECIFIC FOR PLURIPOTENT STEM CELLS AND REPROGRAMMING-READY CELLS AND METHODS OF USING THE SAME” (Agency for Science, Technology and Research, priority 2018, published 2023)",
  "key": {"reprogramming DPSCs": {"system": "reprogramming DPSCs", "test": "Staining of DPSCs reprogrammed with retroviral Yamanaka factors on MEF", "assay_type": "cell-based, human", "details": "retroviral OCT4, SOX2, KLF4, C-MYC", "source_text": "iPS cells were also generated from DPSCs with the traditional protocol involving retroviral vectors expressing OCT4, SOX2, KLF4, and C-MYC (Sugii, et al. (2011). Nature Protoc 6(3):346-358). BJ human neonatal fibroblasts were reprogrammed using lentiviral OCT4, SOX2, KLF4, and C-MYC as described previously (Toh, et al. (2016). Cell Rep 15(12):2597-2607).\nWe also tested whether BDL-E5 worked for commonly used reprogramming methods and cell type. DPSCs were infected with retroviral vectors expressing four Yamanaka factors, and plated onto MEF. […] In addition, BJ human fibroblasts were reprogrammed with lentiviral Yamanaka factors."}, "reprogramming ASCs": {"system": "reprogramming ASCs", "test": "BDL-E5 live staining time course of episomally reprogrammed ASCs on MG", "assay_type": "cell-based, human", "protocol": "Episomal plasmids developed by Yamanaka's lab were obtained from Addgene: pCXLEhOct3/4-shp53-F (Addgene #27077), pCXLE-hSK (Addgene #27078), pCXLE-hUL (Addgene #27080) and pCXLE-EGFP (Addgene #27082) (Okita, et al. (2011). Nat Methods 8, 409-412). 1×10^6 cells were suspended together with 1 μg of each episomal vector in Nucleofector solution supplied in the Nucleofector Kit R (Lonza). Then the cells were transfected with the Program FF-113 on a Nucleofector 2b Device. The transfected cells were then cultured in ASC or DPSC medium (MSC medium) supplemented with 0.5 mM sodium butyrate, with daily media change. On Day 7 dpn, 1×10^5 viable cells were seeded over MEF feeders (GlobalStem) into one well of a 6-well plate for feeder-based iPS derivation; 2×10^5 viable cells were seeded for feeder-free iPS derivation into one well of a 6-well plate pre-coated with Matrigel (Corning). The next day, MSC medium was changed to feeder-based hES medium (DMEM/F12 supplemented with 20% knock out serum replacement, 1% GlutaMAX, 1% NEAA, Pen/Strep, 0.1 mM p-mercaptoethanol and 10 ng/ml b-FGF) or to feeder-free mTeSR1 (StemCell Technologies), supplemented with sodium butyrate. At 12 dpn, supplementation of sodium butyrate was stopped, and conditioned further with SMC4 cocktail (consisting of small molecules: PD0325901, CHIR99021, Thiazovivin, and SB431542 (FOCUS Biomolecules)) in hES medium/mTeSR1. This media supplement was continued until initial colony formation began.\nReprogrammed cells were immune-stained with fluorescent live cell stain TRA-1-60 (R&D Systems, GloLIVE NL557) as per manufacturer's instructions. After incubating with the live staining antibodies for 30 min and Hoechst 33342 for 10 min, cells were washed 3 times with PBS and images with the Cy5 and DAPI channels, respectively, were immediately captured.\nFurther experiments were carried out using BDL-E5. To determine whether BDL-E5 identifies the early stages of pluripotency, ASCs and DPSCs were reprogrammed using nucleofection of episomal vectors, and seeded onto MG-coated plates (feeder-free, viral-free reprogramming method). […]"}},
  "data": [
    {"smiles": "COc1cc(F)c(/C=C/c2cc(C)c3n2[B-](F)(F)[N+]2=C(CCC(=O)NCCN(C)C)C=CC2=C3)cc1OC", "note": "[BDL-E5]", "values": [
      {"measurement": "earliest time of staining of reprogramming cells", "setting": "reprogramming DPSCs", "value": 7, "unit": "dpi"},
      {"measurement": "intensity of fluorescence of staining at 7, 14, 21, 28 dpn", "setting": "reprogramming ASCs; iPS colonies formed from ASCs", "value": "increased with increasing time"},
      {"measurement": "fate of stained cells tracked in the same field of view until colony formation", "setting": "reprogramming ASCs; reprogrammed ASCs, staining every 48 h, 10-24 dpn", "value": "only cells staining positive for BDL-E5 formed iPS colonies"},
      {"measurement": "time at which positive cells/colonies were found", "setting": "reprogramming ASCs; reprogramming ASCs, MG-coated plates, episomal feeder-free", "value": "around 14 dpn"}
    ]}
  ]
}
